Each block holds one compound with its values, some of them ahead of it.
Columns and labels:
Panx1 channel = molecular target: T1, Panx1 channel (Mus musculus, UniProt Q9JIP4); assay: YO-PRO-1 dye uptake assay in BV-2 microglia-like cells (BzATP stimulation); format: cell-based; details: BV-2 cells; pre-treatment; concentration not given
T1 construct: endogenous in cells; host or cells: BV-2 microglia-like cells
Method: After plating into 96 well plates, cell culture media was removed and BV-2 cells were incubated in extracellular solution (ECS) (140 mM NaCl, 4.5 mM KCl, 1.3 mM CaCl2, 10 mM HEPES, and 33 mM glucose; pH7.35, osmolarity 315 mOsm) containing YO-PRO-1 dye (2.5 μM, Invitrogen). After a 5 minute baseline recording, cells were stimulated with 3′-O-(4-benzoyl)benzoyl adenosine 5′-triphosphate (BzATP) (150 μM, Toronto Research Chemicals) and dye-uptake was recorded for 30 minutes. Cell viability was assessed immediately after the 30 minute recording by application of ionomycin (1 μM, Sigma). […] YO-PRO-1 fluorescent emission (491/509) was detected using a FilterMax F5 plate reader (Molecular Devices). Drugs used include (−)-norepinephrine (100 pM-1 μM, Sigma), probenecid (1 mM, Life Technologies), and Compound 1 (10 nM, Derksen et al). Drugs were bath applied in ECS containing YO-PRO-1 dye and incubated at 37° C. for 10 minutes prior to BzATP stimulation. Fluorescent emission at 30 minutes post-BzATP was calculated as an average of the entire imaging field as percent change from baseline, and responses at 30 minutes were averaged over multiple independent experiments. Individual traces of BV-2 YO-PRO-1 dye uptake were taken at 10 minute intervals and represent the average response of all BV-2 cells in the recorded view from a subset of experiments.
BV-2 microglia-like cells were maintained in DMEM (Gibco) containing 5% fetal bovine serum (Gibco) and 1% penicillin-streptomycin (Gibco) with 5% CO2.
The compounds tested were designed to more readily penetrate the blood brain barrier and were therefore predicted to require a lower dose to produce similar effects. Prior to testing the compounds in animals, the compounds were first tested in BV2 microglia-like cells using the YO-PRO-1 Dye Uptake Assay. By using this assay, Panx1 channel activity in response to BzATP stimulation of P2X7, an upstream receptor that causes Panx1 pore formation can be assessed. YO-PRO-1 is a large molecular weight dye that can only enter the cell through large pore ion channels such as Panx1, therefore its uptake correlates with Panx1 channel opening. BzATP stimulation causes a significant increase in YO-PRO-1 dye uptake in cells pre-treated with ECS and vehicle solution (0.1% DMSO) (FIG. 1, B).

[1] = molecular target: T2, rPanx1 (Rattus norvegicus Pannexin-1) expressed in 293T cells (Rattus norvegicus, UniProt P60570); assay: Whole-cell patch-clamp of Panx1 currents in transfected 293T cells; format: cell-based, Homo sapiens
T2 construct: expressed in transfected cells; host or cells: Human embryonic kidney-293T cells (ATCC), transient Lipofectamine 2000 transfection
T2 sequence (P60570 whole entry): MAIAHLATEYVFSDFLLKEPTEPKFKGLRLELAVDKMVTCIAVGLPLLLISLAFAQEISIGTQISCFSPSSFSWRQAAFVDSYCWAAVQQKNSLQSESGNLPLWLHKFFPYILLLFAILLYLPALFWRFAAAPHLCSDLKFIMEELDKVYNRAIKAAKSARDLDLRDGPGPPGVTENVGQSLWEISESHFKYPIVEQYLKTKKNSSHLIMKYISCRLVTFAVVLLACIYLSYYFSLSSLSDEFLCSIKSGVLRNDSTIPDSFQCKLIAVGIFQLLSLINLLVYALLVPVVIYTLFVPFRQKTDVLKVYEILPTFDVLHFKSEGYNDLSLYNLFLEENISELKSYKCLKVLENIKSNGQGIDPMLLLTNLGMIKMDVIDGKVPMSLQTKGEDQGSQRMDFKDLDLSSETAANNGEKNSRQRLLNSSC
Method: To further compare the effects of probenecid, Compounds 1 and 5 on Pannexin-1 channels […] Panx-1 was expressed in embryonic kidney-293T cells (293T) and channel activity was assessed at various doses of each compound.
Rattus norvegicus Pannexin-1 (rPanx1) complementary DNA (cDNA) was cloned between BamHI and SalI sites in a pRK5 expression vector (pRK5-rPanx1). Enhanced green fluorescent protein (EGFP) plasmid (pEGFP-C1) was commercially purchased (addgene).
Human embryonic kidney-293T cells (293T) were purchased from ATCC and routinely maintained in the laboratory. Adherent 293T cells were grown in Dulbecco's modified Eagle's medium (Thermo Fisher) supplemented with 10% fetal bovine serum (Thermo Fisher) and 1% penicillin-streptomycin (10,000 U/mL; Thermo Fisher) at 37° C. in a 5% CO2 humidified growth incubator. 293T cells between the passages 6-20 were used for experiments. For patch-clamp recordings, 293T cells reaching 40-60% confluency on 35 mm culture plates were transiently transfected using Lipofectamine 2000 (Thermo Fisher) 36-48 hours before experiments, using the manufacturer's protocol. 293T cells were transfected with 2.5 μg pRK5-rPanx1 and 0.5 μg pEGFP-C1 cDNAs at a mixed ratio of 5:1 to identify positively transfected cells.
On the day of experiments, transiently transfected 293T cells overexpressing rPanx1 and EGFP cDNAs were seeded onto poly-d-lysine coated glass coverslips at least 2 hours before recordings. […] Data was acquired using Clampex (v.10) software and an Axon Digidata 1550A digitizer (Axon Instruments) at 10 kHz, with currents analyzed offline in Clampfit software (v.10.7). […]
293T cells were voltage clamped at −60 mV in whole-cell configuration and exposed to a 300 ms voltage ramp (−80 to +80 mV) before stepping back to −60 mV to record rPanx1 voltage-sensitive currents. Baseline currents were first measured in extracellular solution before perfusion of drug compounds in incrementally increasing concentrations. […]

C57BL/6J mice [2] = assay: Naloxone-precipitated morphine withdrawal, composite withdrawal score; format: in vivo; details: 50 mg/kg i.p., 60 minutes prior to naloxone
Method: Adult male C57BL/6J (7-9 weeks) mice were used. Mice were housed under 12/12 hour light/dark cycles with ad libitum access to food and water. Mice were randomly allocated to different test groups. All experiments were approved by the University of Calgary Animal Care Committee and are in accordance with the guidelines of the Canadian Council on Animal Care.
Morphine sulfate (MS, PCCA) prepared in 0.9% sterile saline solution was injected i.p. into male C57BLJ6J (20-30g) mice. Mice received ascending doses of morphine (i.p.) at 8 hours intervals: day 1, 10mg/kg; day 2, 20 mg/kg; day 3, 30 mg/kg; day 4, 40mg/kg. On day 5, mice received a morning injection of morphine (50 mg/kg). A subset of mice received probenecid (15, 25, and 50 mg/kg i.p., Invitrogen) or Compound 1 (0.1, 0.5 and 1 mg/kg) 1 hour following morphine. Mice then received i.p. naloxone (2 mg/kg, naloxone hydrochloride dihydrate, Sigma) 2 hours following morphine to rapidly induce opioid withdrawal. Control mice received equivalent volumes of 0.9% saline or appropriate vehicle solution (0.1% DMSO in saline) and were challenged with naloxone on day 5. Withdrawal behaviors were then scored for 30 minutes post naloxone injection. Behaviors were scored for occurrence and then scaled for severity at 5-minute intervals. Behaviors that were assigned a standardized score between 0-3 depending on severity were jumping, headshakes, wet-dog shakes, chewing/licking, and teeth chattering. Behaviors that were scored 1 point for presence during a 5-minute interval include piloerection and tremors/twitching. The mice were then weighed following the 30 minutes, and the weight difference was assigned a standardized score dependent on the weight change between 0-3 as well. The scaled and present/absent signs were compiled over the 30 minutes to produce a composite withdrawal score.
All data are presented as the mean±standard error mean (s.e.m), and each circle represents an individual animal or experiment. Tests of statistical difference were performed with GraphPad Prism 6 using either an ordinary one-way ANOVA with posthoc Dunnet test, or a two-way ANOVA with post hoc Sidak test. Sample sizes are consistent with those reported in similar studies and provide sufficient power to detect changes with the appropriate statistical analysis. For all experiments, a criterion a level was set at 0.05.

C57BL/6J mice [3] = details: background statement; pharmacological blockade of Panx1; cited from earlier work
C57BL/6J mice [4] = assay: Naloxone-precipitated morphine withdrawal, composite withdrawal score; format: in vivo; details: 50 mg/kg, 30 minutes before withdrawal
[5] = background statement; cited from earlier work

T1 sequence (Q9JIP4 whole entry): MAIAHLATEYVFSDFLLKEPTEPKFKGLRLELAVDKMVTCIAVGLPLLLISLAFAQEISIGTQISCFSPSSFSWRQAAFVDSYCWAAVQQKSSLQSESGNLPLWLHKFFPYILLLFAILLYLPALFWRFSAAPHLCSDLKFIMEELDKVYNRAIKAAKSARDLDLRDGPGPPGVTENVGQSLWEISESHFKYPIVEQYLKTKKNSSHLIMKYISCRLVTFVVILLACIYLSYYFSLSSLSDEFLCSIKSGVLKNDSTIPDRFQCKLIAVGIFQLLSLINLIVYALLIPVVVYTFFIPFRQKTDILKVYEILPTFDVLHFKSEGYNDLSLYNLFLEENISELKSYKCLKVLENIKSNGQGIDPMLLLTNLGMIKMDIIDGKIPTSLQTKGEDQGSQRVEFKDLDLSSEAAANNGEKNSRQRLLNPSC

Compound: CCCN(CCC)S(=O)(=O)c1ccc(-c2ccc3[nH]ncc3c2)cc1 [Compound 3, 4-(1H-indazol-5-yl)-N,N-dipropylbenzenesulfonamide]
Panx1 channel activity (BzATP-stimulated YO-PRO-1 dye uptake) (Panx1 channel): significantly blocked

Compound: CCCN(CCC)S(=O)(=O)c1ccc(-c2cnc(N(C)C)nc2)cc1 [Compound 6]
Panx1 channel activity (BzATP-stimulated YO-PRO-1 dye uptake) (Panx1 channel): significantly blocked

Compound: CCCN(CCC)S(=O)(=O)c1ccc(C(=O)O)cc1 [probenecid, reference compound]
Block of Panx1 (inhibition of transfected current) ([1]; maximum doses): 100% | Composite withdrawal score (C57BL/6J mice [2]): significantly reduced withdrawal score | Withdrawal behaviors in mice (C57BL/6J mice [3]): ameliorated withdrawal behaviors | Withdrawal behaviors (C57BL/6J mice [4]): not effective | Solubility [5]: poor solubility

Second part, the compound after the results:

Panx1 channel activity (BzATP-stimulated YO-PRO-1 dye uptake) (Panx1 channel): significantly blocked | Panx1 inhibitory potency relative to Probenecid (patch-clamp) ([1]; voltage ramp -80 to +80 mV, various doses): more potent
Compound: CCCN(CCC)S(=O)(=O)c1ccc(-c2cn[nH]c2)cc1 [Compound 5]

Panx1 channel activity (BzATP-stimulated YO-PRO-1 dye uptake) (Panx1 channel): significantly blocked
Compound: CN(C)S(=O)(=O)c1ccc(C(O)(C(F)(F)F)C(F)(F)F)cc1 [Compound 2, 4-(1,1,1,3,3,3-hexafluoro-2-hydroxypropan-2-yl)-N,N-dimethylbenzenesulfonamide]

Panx1 channel activity (BzATP-stimulated YO-PRO-1 dye uptake) (Panx1 channel): significantly blocked
Compound: CCCN(CCC)S(=O)(=O)c1ccc(-c2ccnc(N3CCNCC3)c2)cc1 [Compound 4]

Source: US20240166596A1, “SULFAMOYL BENZENE DERIVATIVES AND USES THEREOF” (AphioTx Inc., priority 2021, published 2024)
